Experiments:
[1] = molecular target: T1, human toll like receptor 7 (hTLR7) (Homo sapiens, UniProt Q9NYK1); assay: hTLR7 in-vitro functional assay (HEK-Blue hTLR7 SEAP reporter); type: cell-based; settings: HEK-Blue hTLR7 cells, overnight incubation
T1 construct: host or cells: HEK293 (HEK-Blue hTLR7)
T1 sequence (Q9NYK1 27-1049): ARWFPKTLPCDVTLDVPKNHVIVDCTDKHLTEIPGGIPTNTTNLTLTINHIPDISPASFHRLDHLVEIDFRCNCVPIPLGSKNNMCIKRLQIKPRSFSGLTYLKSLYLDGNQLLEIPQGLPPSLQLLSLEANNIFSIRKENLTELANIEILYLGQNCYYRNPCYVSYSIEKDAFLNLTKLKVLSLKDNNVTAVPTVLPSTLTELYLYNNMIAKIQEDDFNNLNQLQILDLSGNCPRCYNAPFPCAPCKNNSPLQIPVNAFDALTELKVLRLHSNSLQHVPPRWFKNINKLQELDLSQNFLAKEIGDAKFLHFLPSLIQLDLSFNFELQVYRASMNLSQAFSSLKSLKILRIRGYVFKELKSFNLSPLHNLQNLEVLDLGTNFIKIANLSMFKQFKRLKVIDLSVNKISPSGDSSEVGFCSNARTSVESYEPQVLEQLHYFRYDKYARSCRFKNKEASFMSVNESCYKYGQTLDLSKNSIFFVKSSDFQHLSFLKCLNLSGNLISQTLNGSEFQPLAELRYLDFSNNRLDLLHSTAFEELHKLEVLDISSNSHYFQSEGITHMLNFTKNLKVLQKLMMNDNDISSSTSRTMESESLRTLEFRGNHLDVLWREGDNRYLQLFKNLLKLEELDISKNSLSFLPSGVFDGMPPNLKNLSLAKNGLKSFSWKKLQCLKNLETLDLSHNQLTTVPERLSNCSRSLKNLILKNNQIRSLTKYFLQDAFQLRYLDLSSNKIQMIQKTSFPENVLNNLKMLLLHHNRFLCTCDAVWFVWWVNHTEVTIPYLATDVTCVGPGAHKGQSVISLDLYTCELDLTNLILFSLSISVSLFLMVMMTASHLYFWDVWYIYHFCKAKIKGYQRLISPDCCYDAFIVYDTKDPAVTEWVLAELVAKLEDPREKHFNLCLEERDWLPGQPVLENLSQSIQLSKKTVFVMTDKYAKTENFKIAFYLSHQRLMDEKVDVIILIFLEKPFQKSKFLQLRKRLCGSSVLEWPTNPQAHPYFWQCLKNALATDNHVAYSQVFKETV

[2] = molecular target: T2, human toll like receptor 8 (hTLR8) (Homo sapiens, UniProt Q9NR97); assay: hTLR8 in-vitro functional assay (HEK-Blue hTLR8 SEAP reporter); type: cell-based; settings: HEK-Blue hTLR8 cells, overnight incubation
T2 construct: host or cells: HEK293 (HEK-Blue hTLR8)
T2 sequence (Q9NR97 27-1041): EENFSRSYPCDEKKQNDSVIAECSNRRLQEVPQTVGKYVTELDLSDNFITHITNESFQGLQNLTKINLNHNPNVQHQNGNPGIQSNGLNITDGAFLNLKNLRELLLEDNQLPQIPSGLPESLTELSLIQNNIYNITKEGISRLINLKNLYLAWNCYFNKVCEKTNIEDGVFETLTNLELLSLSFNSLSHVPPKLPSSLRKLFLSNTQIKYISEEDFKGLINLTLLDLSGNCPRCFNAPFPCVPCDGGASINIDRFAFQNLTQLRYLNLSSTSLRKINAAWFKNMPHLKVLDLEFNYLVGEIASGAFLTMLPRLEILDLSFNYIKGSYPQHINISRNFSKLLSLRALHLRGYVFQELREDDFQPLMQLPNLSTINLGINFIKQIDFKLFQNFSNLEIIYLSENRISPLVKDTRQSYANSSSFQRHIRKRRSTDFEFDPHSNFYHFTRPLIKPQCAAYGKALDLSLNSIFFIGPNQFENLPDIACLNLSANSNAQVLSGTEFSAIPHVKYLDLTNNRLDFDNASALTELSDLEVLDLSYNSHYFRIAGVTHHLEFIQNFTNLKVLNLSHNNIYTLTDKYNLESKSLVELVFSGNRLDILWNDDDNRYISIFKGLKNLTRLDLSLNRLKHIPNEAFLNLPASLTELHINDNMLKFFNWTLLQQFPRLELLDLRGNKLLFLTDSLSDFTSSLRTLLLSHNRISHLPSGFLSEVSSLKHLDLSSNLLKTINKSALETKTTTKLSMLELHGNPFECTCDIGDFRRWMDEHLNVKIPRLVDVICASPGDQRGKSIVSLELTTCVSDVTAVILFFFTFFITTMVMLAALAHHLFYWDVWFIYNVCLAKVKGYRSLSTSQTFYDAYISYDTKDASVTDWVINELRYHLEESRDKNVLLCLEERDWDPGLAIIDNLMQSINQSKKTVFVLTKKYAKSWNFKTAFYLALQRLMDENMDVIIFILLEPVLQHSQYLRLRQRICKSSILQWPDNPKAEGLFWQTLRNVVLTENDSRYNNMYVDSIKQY

RSV A strain (M37) = assay: In vivo immunogenicity with RSV antigen, RSV microneutralization assay; design: species or system female BALB/c mice; settings: 0.5 μg bivalent RSV antigen alone or mixed with 2 nmol adjuvant, intramuscular days 0 and 21, sera day 35
Experimental: In two independent in vivo immunogenicity studies, female BALB/c mice were immunized intramuscularly twice three weeks apart (days 0 and 21) with 0.5 μg of RSV antigen alone or mixed with 2 nmol of Example 1 adjuvant (Compound 1). Sera were collected at day 35 to determine RSV neutralization antibody titers (nAb). The RSV antigen tested was bivalent comprising a RSV F Protein of Subtype A comprising the sequence of SEQ ID NO: 1 and SEQ ID NO: 2, as well as a RSV F Protein of Subtype B comprising the sequence of SEQ ID NO: 3 and SEQ ID NO: 4.
50% nAb responses against RSV A strain (M37) were measured by an RSV microneutralization assay at 2 weeks post dose 2.

S. pneumoniae serotype 3 = type: in vivo, female Swiss-Webster mice; settings: mouse

SMILES	EC50 [1] [nM]	EC50 [2] [µM]	50% neutralizing antibody titers (nAb) to RSV, GMT (RSV A strain (M37); Study 1)	50% neutralizing antibody titers (nAb) to RSV, GMT (RSV A strain (M37); Study 2)	OPA geometric mean titers (GMT) (S. pneumoniae serotype 3; 0.1 μg S. pneumoniae serotype 3-CRM197 antigen with adjuvant (2 nmol; AlPO4 100 μg), IM weeks 0 and 3, sera week 5)	OPA geometric mean titers compared with reference adjuvants (S. pneumoniae serotype 3; S. pneumoniae serotype 3 antigen, versus aluminum phosphate and free TLR 7/8 agonist)
CCCCc1nc2c(N)nc3cc(CCCN4CCN(C(=O)CCOCCOCCOCCOCCOCCOCCOCCOCCOCCOCCOCCOCCOCCOCCOCCOCCOCCOCCOCCOCCOCCOCCOCCOCCNC(=O)CCOCCOCCOCCOCCNC(=O)O[C@H]5CC[C@@]6(C)C(=CC[C@H]7[C@@H]8CC[C@H]([C@H](C)CCCC(C)C)[C@@]8(C)CC[C@@H]76)C5)CC4)ccc3c2n1CC(C)(CO)CO [Compound 1, (3beta)-cholest-5-en-3-yl {91-[4-(3-{4-amino-2-butyl-1-[3-hydroxy-2-(hydroxymethyl)-2-methylpropyl]-1H-imidazo[4,5-c]quinolin-7-yl}propyl)piperazin-1-yl]-15,91-dioxo-3,6,9,12,19,22,25,28,31,34,37,40,43,46,49,52,55,58,61,64,67,70,73,76,79,82,85,88-octacosaoxa-16-azahennonacont-1-yl}carbamate]	122	1.36	7502	5362	833	higher average OPA geometric mean titers than aluminum phosphate, as well as the free TLR 7/8 agonist molecule
CCCCc1nc2c(N)nc3cc(CCCN4CCN(CCCOCCOCCOCCOCCOCCOCCOCCOCCOCCOCCOCCOCCNC(=O)O[C@H]5CC[C@@]6(C)C(=CC[C@H]7[C@@H]8CC[C@H]([C@H](C)CCCC(C)C)[C@@]8(C)CC[C@@H]76)C5)CC4)ccc3c2n1CC(C)(CO)CO [Compound 21, (20R)-cholest-5-en-3beta-yl {39-[4-(3-{4-amino-2-butyl-1-[3-hydroxy-2-(hydroxymethyl)-2-methylpropyl]-1H-imidazo[4,5-c]quinolin-7-yl}propyl)piperazin-1-yl]-3,6,9,12,15,18,21,24,27,30,33,36-dodecaoxanonatriacontan-1-yl}carbamate]	533	> 25	–	–	–	–
CCCCc1nc2c(N)nc3cc(CCCN4CCN(CCCOCCNC(=O)O[C@H]5CC[C@@]6(C)C(=CC[C@H]7[C@@H]8CC[C@H]([C@H](C)CCCC(C)C)[C@@]8(C)CC[C@@H]76)C5)CC4)ccc3c2n1CC(C)(CO)CO [Compound 10, (3beta,20R)-cholest-5-en-3-yl (2-{3-[4-(3-{4-amino-2-butyl-1-[3-hydroxy-2-(hydroxymethyl)-2-methylpropyl]-1H-imidazo[4,5-c]quinolin-7-yl}propyl)piperazin-1-yl]propoxy}ethyl)carbamate]	186	9.91	–	–	–	–
CCOCc1nc2c(N)nc3cc(CCCN4CCN(C(=O)CCOCCOCCOCCOCCOCCOCCOCCOCCOCCOCCOCCOCCNC(=O)CCOCCOCCOCCOCCNC(=O)O[C@H]5CC[C@@]6(C)C(=CC[C@H]7[C@@H]8CC[C@H]([C@H](C)CCCC(C)C)[C@@]8(C)CC[C@@H]76)C5)CC4)ccc3c2n1CC(C)(CO)CO [Compound 13, (3beta,20R)-cholest-5-en-3-yl {55-[4-(3-{4-amino-2-(ethoxymethyl)-1-[3-hydroxy-2-(hydroxymethyl)-2-methylpropyl]-1H-imidazo[4,5-c]quinolin-7-yl}propyl)piperazin-1-yl]-15,55-dioxo-3,6,9,12,19,22,25,28,31,34,37,40,43,46,49,52-hexadecaoxa-16-azapentapentacont-1-yl}carbamate]	223	3.33	–	–	–	–
CCCCc1nc2c(N)nc3cc(CCCN4CCN(C(=O)CCOCCOCCOCCOCCOCCOCCOCCOCCOCCOCCOCCOCCOCCOCCOCCOCCOCCOCCOCCOCCOCCOCCOCCOCCOCCOCCOCCOCCOCCOCCOCCOCCOCCOCCOCCOCCNC(=O)CCOCCOCCOCCOCCNC(=O)CCCOc5c(C)c(C)c6c(c5C)CC[C@@](C)(CCC[C@H](C)CCC[C@H](C)CCCC(C)C)O6)CC4)ccc3c2n1CC(C)(CO)CO [Compound 24]	134	2.38	–	–	–	–
CCCCc1nc2c(N)nc3cc(CCCN4CCN(CCCOCCOCCOCCOCCOCCOCCOCCOCCOCCOCCOCCOCCOCCOCCOCCOCCOCCOCCOCCOCCOCCOCCOCCOCCNC(=O)CCOCCOCCOCCOCCNC(=O)CCCOc5c(C)c(C)c6c(c5C)CC[C@@](C)(CCC[C@H](C)CCC[C@H](C)CCCC(C)C)O6)CC4)ccc3c2n1CC(C)(CO)CO [Compound 26, N-{75-[4-(3-{4-amino-2-butyl-1-[3-hydroxy-2-(hydroxymethyl)-2-methylpropyl]-1H-imidazo[4,5-c]quinolin-7-yl}propyl)piperazin-1-yl]-3,6,9,12,15,18,21,24,27,30,33,36,39,42,45,48,51,54,57,60,63,66,69,72-tetracosaoxapentaheptacontan-1-yl}-17-oxo-20-({(2R)-2,5,7,8-tetramethyl-2-[(4R,8R)-4,8,12-trimethyltridecyl]-3,4-dihydro-2H-1-benzopyran-6-yl}oxy)-4,7,10,13-tetraoxa-16-azaicosan-1-amide]	404	> 25	–	–	–	–
CCCCc1nc2c(N)nc3cc(CCCN4CCN(CCCOCCOCCOCCOCCNC(=O)O[C@H]5CC[C@@]6(C)C(=CC[C@H]7[C@@H]8CC[C@H]([C@H](C)CCCC(C)C)[C@@]8(C)CC[C@@H]76)C5)CC4)ccc3c2n1CC(C)(CO)CO [Compound 22, (20R)-cholest-5-en-3beta-yl {15-[4-(3-{4-amino-2-butyl-1-[3-hydroxy-2-(hydroxymethyl)-2-methylpropyl]-1H-imidazo[4,5-c]quinolin-7-yl}propyl)piperazin-1-yl]-3,6,9,12-tetraoxapentadecan-1-yl}carbamate]	1160	11.7	–	–	–	–

Reference: US20250135006A1, “AMPHIPHILIC TLR7/8 ADJUVANTS AND USES THEREOF” (Pfizer Inc., priority 2023, published 2025)
